Measured values published in patent US9073895B2 (Boehringer Ingelheim International GmbH, priority 2010, dated 2015).

Assays:
[1] = target: T1, recombinant human FLAP protein (Homo sapiens, UniProt P20292); assay: FLAP binding assay (SPA, displacement of [125I]L-691,831); conditions: membranes of sf9 cells expressing human FLAP, [125I]L-691,831 probe; read-out: hFLAP binding IC50
T1 construct: made in house; host or cells: Sf9 insect cells (membrane fraction, 100,000 x g pellet)
T1 sequence (P20292 1-161): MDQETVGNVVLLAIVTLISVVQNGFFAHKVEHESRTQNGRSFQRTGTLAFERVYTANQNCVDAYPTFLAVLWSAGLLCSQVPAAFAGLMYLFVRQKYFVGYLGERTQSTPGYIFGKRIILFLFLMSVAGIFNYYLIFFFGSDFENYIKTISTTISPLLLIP
Procedure, shortened: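 Membranes from sf9 cells expressing human FLAP (5 μg/well) were bound to WGA SPA beads (200 μg/well). Nonspecific binding was defined with 10 μM unlabelled L-691,831.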

[2] = system: synthesis of LTB4 in human whole blood; assay: Human whole blood LTB4 production inhibition assay; type: cell-based; conditions: heparinized human whole blood, calcimycin 20 μM, plasma LTB4; read-out: HuWB IC50
Procedure, shortened: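 Steps: compound plus heparinized human whole blood, 15 min at 37° C; add calcimycin to 20 μM final; incubate another 30 min at 37° C; centrifuge at low speed and collect plasma; measure LTB4 with a homogeneous time-resolved fluorescence immunoassay.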

Structure (SMILES)	IC50 [1] [nM]	IC50 [2] [nM]
Nc1ncc(-c2ccc(C3(C(=O)Nc4cc(C(F)(F)F)ccc4N4CCOCC4)CCOCC3)cc2)cn1 [Example 81, 4-[4-(2-aminopyrimidin-5-yl)phenyl]-N-[2-(morpholin-4-yl)-5-(trifluoromethyl)phenyl] tetrahydro-2H-pyran-4-carboxamide]	54	> 3000
Nc1ncc(-c2ccc(C3(C(=O)Nc4ccc(S(=O)(=O)N5CCOCC5)cc4)CCOCC3)cc2)cn1 [Example 64, 4-[4-(2-aminopyrimidin-5-yl)phenyl]-N-[4-(morpholin-4-ylsulfonyl)phenyl]tetrahydro-2H-pyran-4-carboxamide]	48	850
Cc1cc(C)c2ccc(NC(=O)C3(c4ccc(-c5cnc(N)nc5)cc4)CCOCC3)nc2n1 [Example 38, 4-[4-(2-aminopyrimidin-5-yl)phenyl]-N-(5,7-dimethyl-1,8-naphthyridin-2-yl)tetrahydro-2H-pyran-4-carboxamide]	59.5	> 3000
Cn1ccc(NC(=O)C2(c3ccc(-c4cnc(N)nc4)cc3)CCC2)n1 [Example 222, 1-[4-(2-aminopyrimidin-5-yl)phenyl]-N-(1-methyl-1H-pyrazol-3-yl)cyclobutanecarboxamide]	43.5	1230
Nc1ncc(-c2ccc(C3(C(=O)Nc4ccc(Cl)c(Cl)c4)CCOCC3)cc2)cn1 [Example 13, 4-[4-(2-aminopyrimidin-5-yl)phenyl]-N-(3,4-dichlorophenyl)tetrahydro-2H-pyran-4-carboxamide]	16.7	≥ 3000
CC(C)(C(=O)Nc1ccccn1)c1ccc(-c2cnc(N)nc2)cc1 [Example 158, 2-[4-(2-aminopyrimidin-5-yl)phenyl]-2-methyl-N-(pyridin-2-yl)propanamide]	36	5270
NC(=O)c1ccc(NC(=O)C2(c3ccc(-c4cnc(N)nc4)cc3)CCC2)nc1 [Example 93, 6-[({1-[4-(2-aminopyrimidin-5-yl)phenyl]cyclobutyl}carbonyl)amino]pyridine-3-carboxamide]	2.05	312
Nc1ncc(-c2ccc(C3(C(=O)Nc4nccs4)CCC3)cc2)cn1 [Example 200, 1-[4-(2-aminopyrimidin-5-yl)phenyl]-N-(1,3-thiazol-2-yl)cyclobutanaecarboxamide]	19	2010
CS(=O)(=O)c1ccc(NC(=O)C2(c3ccc(-c4cnc(N)nc4)cn3)CCC2)cc1 [Example 107, 1-[5-(2-aminopyrimidin-5-yl)pyridin-2-yl]-N-[4-(methylsulfonyl)phenyl]cyclobutane-carboxamide]	87	1100
N#Cc1ccc(NC(=O)C2(c3ccc(-c4cnc(N)nc4)nc3)CCC2)cc1 [Example 98, 1-[6-(2-aminopyrimidin-5-yl)pyridin-3-yl]-N-(4-cyanophenyl)cyclobutane-carboxamide]	12.2	236
COC(=O)c1cccc(NC(=O)C2(c3ccc(-c4cnc(N)nc4)cc3)CCOCC2)c1 [Example 80, methyl 3-[({4-[4-(2-aminopyrimidin-5-yl)phenyl]tetrahydro-2H-pyran-4-yl}carbonyl)amino]benzoate]	60	> 3000
COc1cc(NC(=O)C2(c3ccc(-c4cnc(N)nc4)cc3)CCC2)ccn1 [Example 187, 1-[4-(2-aminopyrimidin-5-yl)phenyl]-N-(2-methoxypyridin-4-yl)cyclobutanecarboxamide]	5.1	517
Nc1ncc(-c2ccc(C3(C(=O)Nc4ccccc4)CCC3)cc2)cn1 [Example 203, 1-[4-(2-aminopyrimidin-5-yl)phenyl]-N-phenylcyclobutanecarboxamide]	13.7	3250
COc1ccc(-c2ccc(NC(=O)C3(c4ccc(-c5cnc(N)c(CO)c5)cc4)CCOCC3)nc2)cn1 [Example 170]	9.8	894
